According to US20170065566A1, “PHARMACEUTICAL COMBINATIONS COMPRISING ANTIBACTERIAL AGENTS” (WOCKHARDT LIMITED, priority 2014, published 2017):
Where a name gives a salt, the structure may show the parent alone.

System: E. coli 7MP strain producing CMY type, SHV, TEM beta-lactamase enzymes
Experiment: Time kill study (viable bacterial count)
Assay type: cell-based
Conditions: for Bacterial count (Log10 CFU/ml) 0 hour / Bacterial count (Log10 CFU/ml) 2 hour / Bacterial count (Log10 CFU/ml) 4 hour / Bacterial count (Log10 CFU/ml) 6 hour / Bacterial count (Log10 CFU/ml) 8 hour: time kill; for Effect on bacterial count of E. coli throughout the duration of the study (in words): alone or in combination
Procedure: The synergistic killing effect of the combinations according to invention was studied by performing time kill studies. In a typical time kill study, the freshly grown cultures were diluted to the required cell density (initial starting inoculum) in Cation adjusted Muller Hinton broth medium (BD, USA). The antibacterial agents (either alone or in combination) at the required concentrations were added into the culture-containing medium. The samples were incubated under shaking condition (120 rpm) at 37° C. Enumeration of viable bacterial count was done every 2 hour by diluting in normal saline and plating on to the Tryptic Soya Agar plates (BD, USA). The plates were incubated for 24 hours to arrive at the viable bacterial count. […] In general, the decrease of 1 Log CFU/ml, corresponds to 90% killing of bacteria. Similarly, 2 Log CFU/ml reductions indicates to 99% killing of bacteria and 3 Log CFU/ml reductions is equal to 99.9% killing of bacteria.
The assay without any antibacterial agent was taken as control.

[1] = each active ingredient at 4 mcg/ml

Structure (SMILES) | Bacterial count (Log10 CFU/ml) 0 hour (2 mcg/ml) [Log10 CFU/ml] | Bacterial count (Log10 CFU/ml) 2 hour (2 mcg/ml) [Log10 CFU/ml] | Bacterial count (Log10 CFU/ml) 4 hour (2 mcg/ml) [Log10 CFU/ml] | Bacterial count (Log10 CFU/ml) 6 hour (2 mcg/ml) [Log10 CFU/ml] | Bacterial count (Log10 CFU/ml) 8 hour (2 mcg/ml) [Log10 CFU/ml] | Effect on bacterial count of E. coli throughout the duration of the study (in words) [1] | Bacterial count (Log10 CFU/ml) 0 hour [1] [Log10 CFU/ml] | Bacterial count (Log10 CFU/ml) 2 hour [1] [Log10 CFU/ml] | Bacterial count (Log10 CFU/ml) 4 hour [1] [Log10 CFU/ml] | Bacterial count (Log10 CFU/ml) 6 hour [1] [Log10 CFU/ml] | Bacterial count (Log10 CFU/ml) 8 hour [1] [Log10 CFU/ml]
C[C@@H](O)[C@H]1C(=O)N2C(C(=O)O)=C(SCCN=CN)C[C@H]12 [Imipenem, imipenem] | 7.51 | 3.95 | 3.60 | 4.81 | 5.90 |  |  |  |  |  | 
CO/N=C(\C(=O)N[C@@H]1C(=O)N2C(C(=O)[O-])=C(C[n+]3cccc4c3CCC4)CS[C@H]12)c1csc(N)n1 [Cefpirome, cefpirome] |  |  |  |  |  | not effective in decreasing the bacterial count | 7.51 | 8.87 | 9.27 | 9.20 | 9.25
N#C[C@@H]1CC[C@@H]2CN1C(=O)N2OS(=O)(=O)O [Sodium salt of a compound of Formula (I), sodium salt of sulphuric acid, mono[(1R,2S,5R)-2-cyano-7-oxo-1,6-diazabicyclo[3.2.1]oct-6-yl] ester] |  |  |  |  |  | not effective in decreasing the bacterial count | 7.51 | 8.87 | 9.36 | 9.20 | 9.20
CO/N=C(\C(=O)N[C@@H]1C(=O)N2C(C(=O)[O-])=C(C[N+]3(C)CCCC3)CS[C@H]12)c1csc(N)n1 [Cefepime, cefepime] |  |  |  |  |  | not effective in decreasing the bacterial count | 7.51 | 8.47 | 9.19 | 9.20 | 9.30
